Data published in publication PMC8868383, “Pharmacokinetics and Pharmacodynamics of Key Components of a Standardized Centella asiatica Product in Cognitively Impaired Older Adults: A Phase 1, Double-Blind, Randomized Clinical Trial” (Antioxidants, 2022).
“And” between values parts separate entries of the source, which are not always exact repeats. Equal values may be shown once. Read-outs that look alike come from different tables or passages of the source.

Experiments:
[1] = design: method as in PMID 19167274; details: dogs given encapsulated aqueous extracts of C. asiatica standardized to asiaticoside; cited from earlier work
[2] = design: method as in PMID 2329813, PMID 8020529; details: past human studies of TTFCA or asiatic acid alone, capsule form; cited from earlier work
[3] = Renal (urinary) excretion over 10 h after CAP administration; details: for Detection in 10 h post-administration urine / Predominant form (free or conjugated) in post-administration urine: 2 g and 4 g CAP; for Predominant form (free or conjugated) in post-administration urine: 10 h urine
Protocol: (§1) All participants were asked to refrain from consuming food until 2 h after consumption of the study intervention at each visit to prevent delayed absorption due to food effects. […] Urine samples were collected at baseline and over the 10 h post-administration period at each visit to measure renal excretion. All post-administration urinary output was combined in a 2 L urine collection container stored at 4 °C during the study visit. The total amount of post CAP administration urine was recorded, and a 50 mL aliquot was frozen at −80 °C for analysis. At the second visit, participants consumed the dose they were not randomized to receive at the first visit and underwent all study procedures previously described.
(§2) Calibration curves were prepared in baseline urine and treated with sham enzyme.
(§3) Plasma and urine samples collected at the participant’s screening visit were analyzed in parallel with the samples collected from each study visit to determine the efficacy of the low phytochemical diet in reducing analyte levels from dietary sources. The analysis of the prepared plasma and urine samples was performed at the OHSU Bioanalytical Shared Resource/Pharmacokinetics Core Laboratory (Portland, OR). […] The injection volume was 5 µL. Gradient elution was performed using a mobile phase of solvent A (water containing 0.05% v/v acetic acid) and solvent B (acetonitrile with 0.05% v/v acetic acid). The flow rate was 0.8 mL/min.

[4] = Plasma pharmacokinetics after single oral administration of CAP; details: for Cmax / Tmax / AUC(0-t) / half-life: human; for Cmax / Tmax / AUC(0-t) / half-life / Fold difference in Cmax between the 2 g and 4 g doses: plasma; for Time of larger secondary peak of plasma concentration-time curve / Time of preliminary (initial) peak of plasma concentration-time curve: mean profile, both doses (2 g and 4 g)
Description: (§4) This was a single-center, randomized, double blind, crossover study of two acute dosages (2 g and 4 g) of CAP. The participants were randomized using an arm equivalence design, by the OHSU Research Pharmacy, to receive each dose of CAP in a different order to prevent tolerance effects and ensure some data was available from each dose in the case of a dropout after the first dose. All study personnel were blinded to the participant’s randomization until all data analysis had been completed. All participants consumed both doses of CAP and attended two study visits a minimum of 14 days apart. They were placed on a low phytochemical diet for 48 h prior to and during each study visit in order to minimize interference from dietary TTs and CQAs and ensure that any such compounds identified in the plasma and urine were derived from C. asiatica. To ensure compliance, all participants completed a diet diary over the course of the 48 h. The participants fasted for a minimum of 10 h prior to each study visit, excluding water, to standardize gastrointestinal transit time and minimize delayed absorption due to the presence of food.
(§5) In the morning of each study visit, a baseline blood sample (20 mL) was collected via a peripheral intravenous catheter. […] Blood samples (10 mL) were collected via the peripheral catheter over a 10 h post-administration period at 0.25, 0.5, 0.75, 1, 1.5, 2, 2.5, 3, 4, 6, 8, and 10 h. Blood was transferred to a BD Vacutainer™ heparinized tube (Fisher Scientific) and centrifuged for 10 min at 10,000× g and 4 °C to isolate plasma. Plasma was frozen in 2mL aliquots and kept at −80 °C until analysis. […] All participants were asked to refrain from consuming food until 2 h after consumption of the study intervention at each visit to prevent delayed absorption due to food effects. Breakfast (at 2 h following CAP ingestion), lunch, dinner and snacks, all meeting the low phytochemical criteria, were provided by the OCTRI Bionutrition Unit. Urine samples were collected at baseline and over the 10 h post-administration period at each visit to measure renal excretion. All post-administration urinary output was combined in a 2 L urine collection container stored at 4 °C during the study visit. The total amount of post CAP administration urine was recorded, and a 50 mL aliquot was frozen at −80 °C for analysis. At the second visit, participants consumed the dose they were not randomized to receive at the first visit and underwent all study procedures previously described.
(§6) Sample preparation was performed using a protein precipitation method adapted from Cheng et al. [55] Duplicate plasma samples (50 µL) were combined with an ascorbic acid solution (1%; 10 µL) and incubated for 20 min at 37 °C using A. aerogenes sulfatase (2.5 µL; 0.025–0.05 units) and E. coli glucuronidase (2.5 µL; 12.5–125 units) dissolved in 50% aqueous glycerol to release the analytes from their sulfate and β-D-glucuronic acid esters. Proteins were precipitated by adding a crash solution (200 µL) consisting of 3:1 acetonitrile:methanol containing internal standards (20 µg/mL d3-isoferulic acid, d3-dihydroisoferulic acid, and chrysin or 50 µg/mL ^13C3-ferulic acid and ursolic acid), holding for 30 min at 4 °C and then centrifuged for 5 min at 10,000× g. The supernatant was filtered through a 0.22 µm Ultrafree MC-GV spin filter (Millipore Sigma) at 10,000× g for 5 min at 4 °C and then transferred to vials for analysis. For TT analysis, the concentration of organic solvent (the sample filtrate) to water in each sample was adjusted to a 60:40 ratio to optimize the peak shape, and for CQA analysis, the concentration of organic solvent to 1% aqueous formic acid in each sample was adjusted to a 90:10 ratio to optimize the peak shape.

[5] = Analyte levels in screening and baseline plasma and urine (low phytochemical diet check); details: for Screening Total, urine concentration / Screening Unconjugated, urine concentration: screening visit; for Screening Total, urine concentration / Screening Unconjugated, urine concentration / Plasma concentration at screening visit: uncontrolled diet; for Screening Total, urine concentration: with enzyme hydrolysis; for Screening Total, urine concentration / Screening Unconjugated, urine concentration / Baseline Total, urine concentration / Baseline Unconjugated, urine concentration: mean ± SEM, n = 4; for Screening Unconjugated, urine concentration: sham enzyme; for Plasma concentration at screening visit: before any CAP; for Baseline Total, urine concentration / Baseline Unconjugated, urine concentration: baseline on study visits after 48 h low phytochemical diet, before CAP
Description: as §4, §2
(§7) Plasma and urine samples collected at the participant’s screening visit were analyzed in parallel with the samples collected from each study visit to determine the efficacy of the low phytochemical diet in reducing analyte levels from dietary sources. The analysis of the prepared plasma and urine samples was performed at the OHSU Bioanalytical Shared Resource/Pharmacokinetics Core Laboratory (Portland, OR). For detection of TT glycosides and aglycones, an analytical method adapted from Nair et al. [56] was used. […] The injection volume was 20 µL. Gradient elution was performed using a mobile phase of solvent A (water containing 10 mM ammonium acetate and 0.02% ammonium hydroxide; pH 8.5) and solvent B (methanol). The flow rate was 0.42 mL/min. […] The injection volume was 5 µL. Gradient elution was performed using a mobile phase of solvent A (water containing 0.05% v/v acetic acid) and solvent B (acetonitrile with 0.05% v/v acetic acid). The flow rate was 0.8 mL/min.

clinical = details: human, in vivo, po
Description: as §4, §5, §6

[6] = human, in vivo
Description: as §4, §5, §6

[7] = in vivo
Protocol: as §1, §2, §3

[8] = in vivo; remark: listed apart in the source
Description: as §4, §2, §7

[9] = design: method as in PMID 33767223; details: two separate doses (250 mg and 500 mg), formulation with solubilizing agent; cited from earlier work

Structure (SMILES) | Predominant form (free or conjugated) in post-administration urine [3] | Cmax ([4]; oral) | Tmax ([4]; oral) | AUC(0-t) ([4]; po, 2 g) | Cmax ([4]; po, 2 g) | Tmax ([4]; po, 2 g) | half-life ([4]; po, 2 g) | AUC(0-t) ([4]; po, 4 g) | Cmax ([4]; po, 4 g) | Tmax ([4]; po, 4 g) | half-life ([4]; po, 4 g) | Time of preliminary (initial) peak of plasma concentration-time curve [4] | Screening Total, urine concentration [5] | Screening Unconjugated, urine concentration [5] | Plasma concentration at screening visit [5] | Fold difference in Cmax between the 2 g and 4 g doses [4] | Baseline Total, urine concentration [5] | also measured
C[C@H]1[C@H](C)CC[C@]2(C(=O)O)CC[C@]3(C)C(=CC[C@@H]4[C@@]5(C)C[C@@H](O)[C@H](O)[C@@](C)(CO)[C@@H]5CC[C@]43C)[C@H]12 [AA, asiatic acid] | predominantly in the conjugated form | 133 to 259 ng/mL | 2 h | 364 ± 114 ng·h/mL | 124 ± 29 ng/mL | 2 ± 0.6 h | 228 ± 60 min | 935 ± 178 ng·h/mL | 259 ± 24 ng/mL | 2 ± 0.6 h | 132 ± 30 min | 0.5 h | 0.5 ± 5 ng/mL |  |  |  |  | Time of plasma peak post consumption [1]: 2.7 h; Tmax post-ingestion [2]: 4.0 to 4.6 h; Detection in 10 h post-administration urine [3]: very low concentrations; Cmax ([4]; oral, 2 g): 99 ng/mL; Tmax ([4]; oral, 2 g): 3 h; Cmax ([4]; oral, 4 g): 206 ng/mL; Tmax ([4]; oral, 4 g): 2.5 h; Time of larger secondary peak of plasma concentration-time curve [4]: 2.5 h and 2.5 to 3 h
O=C(O)/C=C/c1ccc(O)c(O)c1 [CA, caffeic acid] |  | 0.3 to 0.5 ng/mL | 6 h | 1 ± 1 ng·h/mL |  |  | 156 min | 3 ± 0.3 ng·h/mL | 1 ± 0.1 ng/mL | 4 ± 1 h | 210 ± 72 min |  | 260 ± 140 ng/mL | 184 ± 144 ng/mL | 0.8 ± 0.6 ng/mL |  |  | Cmax (clinical): 0.3 ± 0.2 ng/mL
COc1cc(/C=C/C(=O)O)ccc1O [FA, ferulic acid] |  |  |  |  |  |  |  |  |  |  |  |  |  |  |  |  |  | Cmax, range over the 2 g and 4 g doses as stated in text [6]: 1 to 1.4 ng/mL; Tmax as stated in text [6]: 6 h; Predominant form (free or conjugated) in post-administration urine [7]: predominantly conjugated form; Plasma concentration at screening visit [8]: 1.3 ± 0.2 ng/mL; Screening Total, urine concentration [8]: 372 ± 78 ng/mL; Screening Unconjugated, urine concentration [8]: 7 ± 3 ng/mL
COc1ccc(/C=C/C(=O)O)cc1O [IFA, isoferulic acid] | predominantly conjugated form | 0.9 to 2 ng/mL | 0.75 h | 5 ± 2 ng·h/mL | 0.9 ± 0.3 ng/mL | 1.3 ± 0.6 h | 528 ± 342 min | 8 ± 0.4 ng·h/mL | 2 ± 0.1 ng/mL | 1 ± 0.4 h | 174 ± 36 min |  | 472 ± 246 ng/mL | 4 ± 3 ng/mL | 2.3 ± 1.0 ng/mL | two-fold | 5 ± 2 ng/mL | 
C[C@H]1[C@H](C)CC[C@]2(C(=O)O[C@@H]3O[C@H](CO[C@@H]4O[C@H](CO)[C@@H](O[C@@H]5O[C@@H](C)[C@H](O)[C@@H](O)[C@H]5O)[C@H](O)[C@H]4O)[C@@H](O)[C@H](O)[C@H]3O)CC[C@]3(C)C(=CC[C@@H]4[C@@]5(C)C[C@@H](O)[C@H](O)[C@@](C)(CO)[C@@H]5[C@H](O)C[C@]43C)[C@H]12 [MS, madecassoside] | predominantly free form |  |  |  |  |  |  |  |  |  |  |  |  |  |  |  |  | Plasma concentration after single administration of modified ECa233 [9]: 10 to 13 ng/mL; Detection in 10 h post-administration urine [3]: small amounts; Amount in the 10 h urine ([3]; after 2 g or 4 g CAP): 1 to 8 µg; Plasma levels ([4]; all time points, 2 g and 4 g CAP): below the lower limit of quantitation (LLOQ)

Now from value to molecule, other results behind:

Predominant form (free or conjugated) in post-administration urine [3] | Cmax ([4]; oral) | Tmax ([4]; oral) | AUC(0-t) ([4]; po, 2 g) | Cmax ([4]; po, 2 g) | Tmax ([4]; po, 2 g) | half-life ([4]; po, 2 g) | AUC(0-t) ([4]; po, 4 g) | Cmax ([4]; po, 4 g) | Tmax ([4]; po, 4 g) | half-life ([4]; po, 4 g) | Time of preliminary (initial) peak of plasma concentration-time curve [4] | Screening Total, urine concentration [5] | Screening Unconjugated, urine concentration [5] | Plasma concentration at screening visit [5] | Fold difference in Cmax between the 2 g and 4 g doses [4] | Baseline Total, urine concentration [5] | Structure (SMILES) | also measured
predominantly conjugated form | 1 to 2 ng/mL | 4 h | 3 ± 0.4 ng·h/mL | 1 ± 0.4 ng/mL | 3.25 ± 0.5 h | 288 ± 78 min | 6 ± 1 ng·h/mL | 2 ± 0.2 ng/mL | 3.5 ± 0.5 h | 66 ± 24 min | 2 h | 117 ± 64 ng/mL | 46 ± 36 ng/mL | 0.3 ± 0.2 ng/mL | two-fold | 9 ± 3 ng/mL | O=C(O)CCc1ccc(O)c(O)c1 [DHCA, dihydrocaffeic acid] | Time of larger secondary peak of plasma concentration-time curve [4]: 4 h; Baseline Unconjugated, urine concentration [5]: 0.9 ± 2 ng/mL
predominantly conjugated form | 11 to 20 ng/mL | 4 h | 42 ± 18 ng·h/mL | 11 ± 5 ng/mL | 3.4 ± 1 h | 270 ± 96 min | 77 ± 25 ng·h/mL | 20 ± 6 ng/mL | 3.5 ± 0.5 h | 150 ± 18 min |  | 939 ± 507 ng/mL | 179 ± 74 ng/mL | 6.6 ± 3.2 ng/mL | two-fold | 273 ± 131 ng/mL | COc1cc(CCC(=O)O)ccc1O [DHFA, dihydroferulic acid] | Baseline Unconjugated, urine concentration [5]: 8 ± 6 ng/mL
predominantly conjugated form | 32 to 42 ng/mL | 6 h | 100 ± 46 ng·h/mL | 32 ± 18 ng/mL | 6 ± 1.4 h | 138 ± 18 min | 189 ± 77 ng·h/mL | 42 ± 18 ng/mL | 5.5 ± 1.7 h | 108 ± 42 min |  | 91 ± 48 ng/mL | 23 ± 14 ng/mL | 49.6 ± 30.4 ng/mL |  | 2 ± 2 ng/mL | O=C(O)CCc1cccc(O)c1 [HPP, 3-(3-hydroxyphenyl)propionic acid] | 
 | 36 to 68 ng/mL | 2 h | 101 ± 16 ng·h/mL | 38 ± 3 ng/mL | 2 ± 0.5 h | 102 ± 30 min | 187 ± 48 ng·h/mL | 63 ± 10 ng/mL | 2 ± 0.5 h | 102 ± 54 min | 0.75 h |  |  |  |  |  | C[C@H]1[C@H](C)CC[C@]2(C(=O)O)CC[C@]3(C)C(=CC[C@@H]4[C@@]5(C)C[C@@H](O)[C@H](O)[C@@](C)(CO)[C@@H]5[C@H](O)C[C@]43C)[C@H]12 [MA, madecassic acid] | Cmax ([4]; oral, 2 g): 32 ng/mL; Tmax ([4]; oral, 2 g): 0.75 h; Cmax ([4]; oral, 4 g): 47 ng/mL; Tmax ([4]; oral, 4 g): 3 h
